Laboratory results as given in PubChem BioAssay (NCI).
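All cell lines were grown in 96-well plates and treated with compound for 48 hours. The concentration for full growth arrest is given as TGI.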

How the values were obtained:
Assay in all cases: NCI anticancer screen, dose series, 48 h
NCI-H460 lung = system: NCI-H460 lung
HT29 colon = system: HT29 colon
MDA-MB-435 = system: MDA-MB-435
UACC-62 melanoma = system: UACC-62 melanoma
OVCAR-5 ovarian = system: OVCAR-5 ovarian
A549 NSCLC = system: A549 NSCLC
BT-549 breast = system: BT-549 breast
ACHN renal = system: ACHN renal
MOLT-4 leukemia = system: MOLT-4 leukemia
RPMI-8226 leukemia = system: RPMI-8226 leukemia

SMILES | TGI (NCI-H460 lung) | TGI (HT29 colon) | TGI (MDA-MB-435) | TGI (UACC-62 melanoma) | TGI (OVCAR-5 ovarian) | TGI (A549 NSCLC) | TGI (BT-549 breast) | TGI (ACHN renal) | TGI (MOLT-4 leukemia) | TGI (RPMI-8226 leukemia)
CN(C)c1ccc(-c2c(C#N)c(N)[nH]c(=S)c2C#N)cc1 | > 100 µM | > 100 µM | > 100 µM | > 100 µM | > 100 µM | > 100 µM | > 100 µM | > 100 µM | – | –
O=C1CC(=O)NC(=NN2C(=O)CSC2c2ccc(Cl)c(Cl)c2)N1 (stereo unspecified) | > 100 µM | > 100 µM | > 100 µM | > 100 µM | > 100 µM | > 100 µM | > 100 µM | > 100 µM | 54.3 µM | > 100 µM
CCOC(=O)CCC(NC(=O)Cc1ccc(Nc2nc3ccccc3nc2-c2ccccc2)cc1)C(=O)OCC (stereo unspecified) | > 100 µM | > 100 µM | > 100 µM | > 100 µM | > 100 µM | > 100 µM | > 100 µM | > 100 µM | > 100 µM | –
CCOC(=O)/C(C)=C\[C@@]1(C)O[C@@H](C)[C@@](C)(OC(C)=O)[C@@H]1OC(C)=O | > 100 µM | > 100 µM | > 100 µM | > 100 µM | > 100 µM | > 100 µM | – | > 100 µM | > 100 µM | > 100 µM
Fc1c(F)c(C(F)(F)F)c(F)c(F)c1N/N=C\c1c[nH]c2ccccc12 | 3.93 µM | 6.46 µM | 3.14 µM | 10.5 µM | 14.3 µM | 12 µM | 7.09 µM | 19.5 µM | 10.3 µM | 10.2 µM
CC1=C/C(=N\OCC(=O)O)CC(c2ccc(C(C)C)cc2)C1 (stereo unspecified) | > 100 µM | 37.6 µM | > 100 µM | > 100 µM | > 100 µM | > 100 µM | – | – | 68.1 µM | 57.1 µM
Cc1nn2c(=O)c([N+](=O)[O-])c(/C=C/c3ccccc3)nc2s1 | 29 µM | 7.83 µM | 5.06 µM | 26.9 µM | > 100 µM | > 79.1 µM | 7.86 µM | 74.9 µM | 20.8 µM | 6.84 µM
O=C1CSC2(CC(/C=C/c3ccccc3O)=NN2c2cccc(S(=O)(=O)O)c2)N1c1nc2ccccc2s1 (stereo unspecified) | > 100 µM | > 100 µM | 55.7 µM | > 100 µM | 64.4 µM | > 100 µM | 77 µM | > 100 µM | 82.9 µM | 42.1 µM
O=C(NC(C(F)(F)F)(C(F)(F)F)P(=O)(c1ccccc1)c1ccccc1)C(C(F)(F)F)C(F)(F)F | > 100 µM | 56 µM | 37.7 µM | > 100 µM | > 100 µM | > 100 µM | – | 30.9 µM | > 100 µM | 91.8 µM
CC1=NC(=O)C(C)(c2ccccc2)N1CCc1ccccc1 (stereo unspecified) | – | > 100 µM | > 100 µM | > 100 µM | > 100 µM | > 100 µM | > 100 µM | > 100 µM | 94.7 µM | > 100 µM
CCOC(=O)c1cc(Sc2ccc(N)c(C(=O)OCC)c2)ccc1N | > 100 µM | > 100 µM | – | > 100 µM | > 100 µM | > 100 µM | > 100 µM | > 100 µM | > 100 µM | > 100 µM
CSC1=N[C@H](c2ccccc2)CS1 | > 100 µM | > 100 µM | > 100 µM | > 100 µM | > 100 µM | > 100 µM | > 100 µM | > 100 µM | > 100 µM | > 100 µM
CN(C)c1ccc(/C=C/C=C\C2=CC(=C\C=C/C=C3C=CC(=[N+](C)C)C=C3)/Sc3ccccc32)cc1 | > 100 µM | > 100 µM | – | > 100 µM | > 100 µM | > 100 µM | – | – | > 100 µM | > 100 µM
COc1cc(/C=C/C(=O)c2sc(-n3nc(-c4ccccc4)cc3-c3ccccc3)nc2C)ccc1O | > 100 µM | – | – | > 100 µM | > 100 µM | > 100 µM | – | > 100 µM | > 100 µM | > 100 µM
NCCCCNCCCN1CC1 | > 100 µM | > 42 µM | > 94.6 µM | 91.1 µM | > 82.9 µM | > 100 µM | 17.4 µM | – | – | > 100 µM
CC(=O)/C(=C\c1ccco1)C(=O)Nc1ccccc1 | > 100 µM | > 100 µM | – | > 100 µM | – | > 100 µM | – | > 100 µM | > 100 µM | > 100 µM
COc1cc2c(cc1OC)-c1[nH]c3ccc(C#N)cc3c1CC(=O)N2 | > 100 µM | > 100 µM | > 100 µM | > 100 µM | > 24.7 µM | > 100 µM | > 100 µM | > 100 µM | > 100 µM | –
CC1=C(C(=O)Nc2cccc3c2C(=O)NC3=O)CC(C(=O)Nc2cccc3c2C(=O)NC3=O)=C(C)N1 | > 100 µM | – | > 100 µM | > 100 µM | > 100 µM | > 100 µM | > 100 µM | > 100 µM | > 100 µM | > 100 µM
NC1CC(=O)c2cc(Cl)sc21 (stereo unspecified) | > 100 µM | > 100 µM | > 100 µM | > 100 µM | > 100 µM | > 100 µM | > 100 µM | > 100 µM | – | –
C/C(CN1C(=O)c2ccccc2C1=O)=N\NS(=O)(=O)c1ccc(Br)cc1 | > 100 µM | > 100 µM | – | > 100 µM | > 100 µM | > 100 µM | – | > 100 µM | > 100 µM | > 100 µM
COC(=O)N1C[C@@]2(C=CC3(CC2)OCCO3)c2ccccc21 | > 100 µM | > 100 µM | 74.5 µM | > 100 µM | > 100 µM | > 100 µM | – | > 100 µM | > 100 µM | > 100 µM
COc1cc(S(=O)(=O)Nc2ccc(-c3csc(N4C(=O)CSC4c4cccs4)n3)cc2)ccc1Cl (stereo unspecified) | 91 µM | > 100 µM | > 100 µM | – | > 100 µM | > 100 µM | 70.5 µM | > 100 µM | > 100 µM | 66.8 µM
O=C(O)c1c[nH]c2c(Sc3ccccc3)nccc2c1=O | > 100 µM | > 100 µM | > 100 µM | > 100 µM | > 100 µM | > 100 µM | > 100 µM | > 100 µM | > 100 µM | –
